Laboratory results published in patent US20250090520A1, “DERIVATIVES OF TURBINMICIN AS ANTIFUNGAL AGENTS” (Wisconsin Alumni Research Foundation, priority 2021, published 2025).
≈ marks a conversion by molar mass, not a printed value. Where two headings read alike, the source gives them in different places.

Tests used:
C. albicans K-1 = assay: In vitro MIC susceptibility testing, broth microdilution; type: cell-based, Candida albicans; details: for MIC: Candida albicans, read-out: MIC C. albicans K-1
Experimental: (§1) In vitro MIC susceptibility testing. […] Six untreated media controls were included on each plate. The plates were incubated at 33° C. for 24 hours. The MICs were determined as the lowest concentration that inhibited visible growth. The MICs were read at 24.

C. tropicalis 98-234 = assay: as above; type: cell-based, Candida tropicalis; details: for MIC: read-out: MIC C. tropicalis 98-234
Experimental: as §1

C. auris B 11211 = assay: as above; type: cell-based, Candida auris; details: for MIC: Candidozyma auris, read-out: MIC C. auris B11211
Experimental: In vitro MIC susceptibility testing. Turbinmicin analogs of the present disclosure were tested for antifungal activity against four Candida isolates, C. albicans K-1, C. tropicalis 98-234, C. auris B 11211, and C. glabrata 4720, and MICs were determined using a broth microdilution method for yeasts. A turbinmicin analog was dissolved in DMSO, serially diluted to 10 concentrations (0.125-64 μg/mL), and tested in a 96-well plate in RPMI medium. […] Six untreated media controls were included on each plate. The plates were incubated at 33° C. for 24 hours. The MICs were determined as the lowest concentration that inhibited visible growth. The MICs were read at 24.

C. glabrata 4720 = assay: as above; type: cell-based, Candida glabrata; details: for MIC: read-out: MIC C. glabrata 4720
Experimental: as §1

[1] = tested on: four Candida isolates, C. albicans K-1, C. tropicalis 98-234, C. auris B 11211, and C. glabrata 4720; assay: In vitro MIC susceptibility testing, positive control over the isolates; type: cell-based; details: RPMI medium, 33° C., 24 hours
Experimental: In vitro MIC susceptibility testing. Turbinmicin analogs of the present disclosure were tested for antifungal activity against four Candida isolates, C. albicans K-1, C. tropicalis 98-234, C. auris B 11211, and C. glabrata 4720, and MICs were determined using a broth microdilution method for yeasts. A turbinmicin analog was dissolved in DMSO, serially diluted to 10 concentrations (0.125-64 μg/mL), and tested in a 96-well plate in RPMI medium. Amphotericin B was used as a positive control and the MICs range were 0.25-1.5 μg/mL. Six untreated media controls were included on each plate. The plates were incubated at 33° C. for 24 hours. The MICs were determined as the lowest concentration that inhibited visible growth. The MICs were read at 24. Results are shown in Table 1 for turbinmicin analog activity against various fungi, including drug-resistant fungi.

[2] = Candida tropicalis, 98234, 24 h
[3] = Nakaseomyces glabratus, 4720, 24 h
[4] = K1, RPMI medium, 33° C., 24 hours, lowest concentration that inhibited visible growth
[5] = Candida tropicalis, 98234, RPMI medium, 33° C., 24 hours, lowest concentration that inhibited visible growth
[6] = B11211, multidrug-resistant clinical isolate, RPMI medium, 33° C., 24 hours, lowest concentration that inhibited visible growth
[7] = Nakaseomyces glabratus, 4720, RPMI medium, 33° C., 24 hours, lowest concentration that inhibited visible growth
[8] = RPMI medium, 33° C., 24 hours, lowest concentration that inhibited visible growth

Compound | MIC (C. albicans K-1; K1, 24 h) [µg/mL] | MIC (C. tropicalis 98-234; [2]) [µg/mL] | MIC (C. auris B 11211; B11211, 24 h) [µg/mL] | MIC (C. glabrata 4720; [3]) [µg/mL] | further results
C/C=C/C=C/C=C/C(=O)O[C@@H]1C=CC[C@H]2/C(=N/CCN(C)C)c3c(O)c4c5c(c3O[C@H]12)OCO[C@@H]5C[C@@H]1C(=O)c2cc(C)[nH]c(=O)c2C(=O)[C@]41O [Compound T8] | 0.13 (≈ 0.186 µM) | 0.13 (≈ 0.186 µM) | 0.25 (≈ 0.358 µM) | 0.25 (≈ 0.358 µM) | –
C/C=C/C=C/C=C/C(=O)O[C@@H]1C=CC[C@H]2/C(=N/CCO)c3c(O)c4c5c(c3O[C@H]12)OCO[C@@H]5C[C@@H]1C(=O)c2cc(C)[nH]c(=O)c2C(=O)[C@]41O [Compound T7] | > 4 | > 4 | > 4 | > 4 | –
C/C=C/C=C/C=C/C(=O)O[C@@H]1C=CC[C@H]2C(=NCCCNC)c3c(O)c4c5c(c3O[C@H]12)OCO[C@@H]5C[C@@H]1C(=O)c2cc(C)[nH]c(=O)c2C(=O)[C@]41O [Compound T18] | 1 (≈ 1.43 µM) | 0.75 (≈ 1.07 µM) | 0.38 (≈ 0.545 µM) | 0.5 (≈ 0.717 µM) | –
C/C=C/C=C/C=C/C(=O)O[C@@H]1C=CC[C@H]2C(=NCCCN3CCOCC3)c3c(O)c4c5c(c3O[C@H]12)OCO[C@@H]5C[C@@H]1C(=O)c2cc(C)[nH]c(=O)c2C(=O)[C@]41O [Compound T23] | – | – | – | – | MIC (C. albicans K-1; [4]): 1 µg/mL (≈ 1.33 µM); MIC (C. tropicalis 98-234; [5]): 1 µg/mL (≈ 1.33 µM); MIC (C. auris B 11211; [6]): 0.63 µg/mL (≈ 0.836 µM); MIC (C. glabrata 4720; [7]): 1 µg/mL (≈ 1.33 µM)
C/C=C/C=C/C=C/C(=O)O[C@@H]1C=CC[C@H]2C(=NCCN3CCS(=O)(=O)CC3)c3c(O)c4c5c(c3O[C@H]12)OCO[C@@H]5C[C@@H]1C(=O)c2cc(C)[nH]c(=O)c2C(=O)[C@]41O [Compound T24] | 0.75 (≈ 0.952 µM) | 1 (≈ 1.27 µM) | 0.28 (≈ 0.355 µM) | 1 (≈ 1.27 µM) | –
C/C=C/C=C/C=C/C(=O)O[C@@H]1C=CC[C@H]2/C(=N\C(C)CN3CCOCC3)c3c(O)c4c5c(c3O[C@H]12)OCO[C@@H]5C[C@@H]1C(=O)c2cc(C)[nH]c(=O)c2C(=O)[C@]41O (stereo partly drawn) [Compound T25] | 0.5 (≈ 0.663 µM) | 1 (≈ 1.33 µM) | 0.25 (≈ 0.332 µM) | 0.5 (≈ 0.663 µM) | –
C/C=C/C=C/C=C/C(=O)O[C@@H]1C=CC[C@H]2/C(=N/C)c3c(O)c4c5c(c3O[C@H]12)OCO[C@@H]5C[C@@H]1C(=O)c2cc(C)[nH]c(=O)c2C(=O)[C@]41O [Compound T12] | 1 (≈ 1.56 µM) | 1 (≈ 1.56 µM) | > 4 | 0.5 (≈ 0.78 µM) | –
C/C=C/C=C/C=C/C(=O)O[C@@H]1C=CC[C@H]2/C(=N/CCN3CCCCC3)c3c(O)c4c5c(c3O[C@H]12)OCO[C@@H]5C[C@@H]1C(=O)c2cc(C)[nH]c(=O)c2C(=O)[C@]41O [Compound T21] | 0.25 (≈ 0.339 µM) | 0.25 (≈ 0.339 µM) | 0.06 (≈ 0.0813 µM) | 0.25 (≈ 0.339 µM) | –
C/C=C/C=C/C=C/C(=O)O[C@@H]1C=CC[C@H]2/C(=N/Cc3ccccc3)c3c(O)c4c5c(c3O[C@H]12)OCO[C@@H]5C[C@@H]1C(=O)c2cc(C)[nH]c(=O)c2C(=O)[C@]41O [Compound T10] | – | – | – | – | MIC (C. albicans K-1; [4]): 2 µg/mL (≈ 2.79 µM); MIC (C. tropicalis 98-234; [5]): 4 µg/mL (≈ 5.58 µM); MIC (C. auris B 11211; [6]): 4 µg/mL (≈ 5.58 µM); MIC (C. glabrata 4720; [7]): 1 µg/mL (≈ 1.4 µM)
C=CC/N=C1/c2c(O)c3c4c(c2O[C@@H]2[C@H](OC(=O)/C=C/C=C/C=C/C)C=CC[C@@H]12)OCO[C@@H]4C[C@@H]1C(=O)c2cc(C)[nH]c(=O)c2C(=O)[C@]31O [Compound T5] | 2 (≈ 3 µM) | 4 (≈ 6 µM) | 2 (≈ 3 µM) | 4 (≈ 6 µM) | –
C/C=C/C=C/C=C/C(=O)O[C@@H]1C=CC[C@H]2C(=NCCCCCN3CCOCC3)c3c(O)c4c5c(c3O[C@H]12)OCO[C@@H]5C[C@@H]1C(=O)c2cc(C)[nH]c(=O)c2C(=O)[C@]41O [Compound T27] | 1 (≈ 1.28 µM) | 2 (≈ 2.56 µM) | 0.5 (≈ 0.64 µM) | 1 (≈ 1.28 µM) | –
C/C=C/C=C/C=C/C(=O)O[C@@H]1C=CC[C@H]2C(=NCCN3CCCC3)c3c(O)c4c5c(c3O[C@H]12)OCO[C@@H]5C[C@@H]1C(=O)c2cc(C)[nH]c(=O)c2C(=O)[C@]41O [Compound T19] | 0.5 (≈ 0.691 µM) | 0.38 (≈ 0.525 µM) | 0.25 (≈ 0.345 µM) | 0.5 (≈ 0.691 µM) | –
C/C=C/C=C/C=C/C(=O)O[C@@H]1C=CC[C@H]2/C(=N/CCCC)c3c(O)c4c5c(c3O[C@H]12)OCO[C@@H]5C[C@@H]1C(=O)c2cc(C)[nH]c(=O)c2C(=O)[C@]41O [Compound T6] | – | – | – | – | MIC (C. albicans K-1; [4]): > 4 µg/mL; MIC (C. tropicalis 98-234; [5]): > 4 µg/mL; MIC (C. auris B 11211; [6]): > 4 µg/mL; MIC (C. glabrata 4720; [7]): > 4 µg/mL
C/C=C/C=C/C=C/C(=O)O[C@@H]1C=CC[C@H]2/C(=N/CCc3ccccn3)c3c(O)c4c5c(c3O[C@H]12)OCO[C@@H]5C[C@@H]1C(=O)c2cc(C)[nH]c(=O)c2C(=O)[C@]41O [Compound T13] | > 4 | > 4 | > 4 | > 4 | –
Turbinmicin [reference compound] | – | – | – | – | MIC C. albicans K-1 (C. albicans K-1; [8]): 0.06 µg/mL; MIC C. tropicalis 98-234 (C. tropicalis 98-234; [8]): 0.25 µg/mL; MIC C. auris B11211 (C. auris B 11211; multidrug-resistant clinical isolate, RPMI medium, 33° C., 24 hours, lowest concentration that inhibited visible growth): 0.05 µg/mL; MIC C. glabrata 4720 (C. glabrata 4720; [8]): 0.13 µg/mL
C#CC/N=C1\c2c(O)c3c4c(c2O[C@@H]2[C@H](OC(=O)/C=C/C=C/C=C/C)C=CC[C@@H]12)OCO[C@@H]4C[C@@H]1C(=O)c2cc(C)[nH]c(=O)c2C(=O)[C@]31O [Compound T15] | > 4 | > 4 | > 4 | > 4 | –
C/C=C/C=C/C=C/C(=O)O[C@@H]1C=CC[C@H]2C(=NCCN3CCN(C)CC3)c3c(O)c4c5c(c3O[C@H]12)OCO[C@@H]5C[C@@H]1C(=O)c2cc(C)[nH]c(=O)c2C(=O)[C@]41O [Compound T26] | – | – | – | – | MIC (C. albicans K-1; [4]): 0.5 µg/mL (≈ 0.664 µM); MIC (C. tropicalis 98-234; [5]): 0.05 µg/mL (≈ 0.0664 µM); MIC (C. auris B 11211; [6]): 0.03 µg/mL (≈ 0.0399 µM); MIC (C. glabrata 4720; [7]): 0.5 µg/mL (≈ 0.664 µM)
C[C@@H]1[C@H](O)[C@@H](C)/C=C/C=C/C=C/C=C/C=C/C=C/C=C/[C@H](O[C@@H]2O[C@H](C)[C@@H](O)[C@H](N)[C@@H]2O)C[C@@H]2O[C@](O)(C[C@@H](O)C[C@@H](O)[C@H](O)CC[C@@H](O)C[C@@H](O)CC(=O)O[C@H]1C)C[C@H](O)[C@H]2C(=O)O [Amphotericin B] | – | – | – | – | MICs range (positive control) [1]: 0.25 to 1.5 µg/mL
